Results published in patent publication US20150105252A1, “SUBSTITUTED PYRAZOLES AS HERBICIDES” (E I DU PONT DE NEMOURS AND COMPANY, priority 2013, published 2015).

Experiments:
foxtail, giant [1] = test: Test A preemergence; type: in vivo, Setaria faberii; details: 0 to 100 scale
Summary of the method: (§1)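 After sowing in a sand–loam mix, pots received compound preemergence by directed soil spray, or postemergence once plants reached the one- to two-leaf stage (2–10 cm). Formulation contained surfactant in a non-phytotoxic solvent. Injury was scored visually after ~10 greenhouse days, 0–100 scale.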

pigweed = test: Test A preemergence; type: in vivo, Amaranthus retroflexus; details: 0 to 100 scale
Summary of the method: as §1

wheat [2] = test: Test A preemergence; type: in vivo, Triticum aestivum; details: preemergence
Summary of the method: as §1

wheat [3] = test: Test A postemergence; type: in vivo, Triticum aestivum
Summary of the method: as §1

rice = test: Test B flood; type: in vivo, Oryza sativa; details: 250 g ai/ha, visual rating on 0 to 100 scale (0 no effect, 100 complete control), 13 to 15 days
Summary of the method: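 Plants were grown to the 2-leaf stage, then pots were flooded to 3 cm above the soil and compounds were applied directly into the paddy water. Water depth was held for the whole test; after 13 to 15 days in a greenhouse, injury was visually rated against untreated controls (0 = no effect, 100 = complete control).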

foxtail, giant [4] = test: Test C preemergence; type: in vivo, Setaria faberii
Summary of the method: (§2)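 Seeds sown in loam–sand blend and treated preemergence with test chemicals in non-phytotoxic solvent with surfactant; postemergence plants in peat-based medium, treated at 2–18 cm (1- to 4-leaf stage). Greenhouse 13 to 15 days, then visual rating versus controls, 0 (no effect) to 100 (complete control).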

johnsongrass = test: Test C preemergence; type: in vivo, Sorghum halepense
Summary of the method: as §2

blackgrass = test: Test C postemergence; type: in vivo, Alopecurus myosuroides; details: for Plant response rating (scale of 0 to 100 where 0 is no effect and 100 is complete control), Blackgrass: 31 g ai/ha, visually evaluated after 13 to 15 days; for Blackgrass plant response rating / Plant response rating, Blackgrass: postemergence; for Blackgrass plant response rating: 62 g ai/ha, scale 0 to 100
Summary of the method: as §2

crabgrass, large = test: Test C postemergence; type: in vivo, Digitaria sanguinalis; details: for Plant response rating (scale of 0 to 100 where 0 is no effect and 100 is complete control), Crabgrass, Large: 31 g ai/ha, visually evaluated after 13 to 15 days; for Crabgrass, Large plant response rating / Plant response rating, Crabgrass, Large: postemergence; for Crabgrass, Large plant response rating: 62 g ai/ha, scale 0 to 100
Summary of the method: as §2

nutsedge, yellow = test: Test C postemergence; type: in vivo, Cyperus esculentus; details: for Plant response rating (scale of 0 to 100 where 0 is no effect and 100 is complete control), Nutsedge, Yellow: 31 g ai/ha, visually evaluated after 13 to 15 days; for Nutsedge, Yellow plant response rating / Plant response rating, Nutsedge, Yellow: postemergence; for Nutsedge, Yellow plant response rating: 62 g ai/ha, scale 0 to 100
Summary of the method: as §2

barnyardgrass = test: Test C postemergence; type: in vivo, Echinochloa crus-galli; details: for Plant response rating (scale of 0 to 100 where 0 is no effect and 100 is complete control), Barnyardgrass: 31 g ai/ha, visually evaluated after 13 to 15 days; for Barnyardgrass plant response rating / Plant response rating, Barnyardgrass: postemergence; for Barnyardgrass plant response rating: 62 g ai/ha, scale 0 to 100
Description: Seeds of plant species selected from blackgrass (Alopecurus myosuroides), ryegrass, Italian (Italian ryegrass, Lolium multiflorum), wheat (winter wheat, Triticum aestivum), galium (catchweed bedstraw, Galium aparine), corn (Zea mays), crabgrass, large (large crabgrass, Digitaria sanguinalis), foxtail, giant (giant foxtail, Setaria faberii), johnsongrass (Sorghum halepense), lambsquarters (Chenopodium album), morningglory (Ipomoea coccinea), nutsedge, yellow (yellow nutsedge, Cyperus esculentus), pigweed (redroot pigweed, Amaranthus retroflexus), ragweed (common ragweed, Ambrosia elation), soybean (Glycine max), barnyardgrass (Echinochloa crus-galli), oilseed rape (Brassica napus), waterhemp (common waterhemp, Amaranthus rudis), oat, wild (wild oat, Avena fatua), kochia (Kochia scoparia), Surinam grass (Brachiaria decumbens), foxtail, green (green foxtail, Setaria viridis), goosegrass (Eleusine indica), bromegrass, downy (downy bromegrass, Bromus tectorum), nightshade (eastern black nightshade, Solanum ptycanthum), cocklebur (common cocklebur, Xanthium strumarium), cupgrass, woolly (woolly cupgrass, Eriochloa villosa), bermudagrass (Cynodon dactylon), sunflower, (common oilseed sunflower, Helianthus annuus), Russian thistle (Salsola kali), and velvetleaf (Abutilon theophrasti) were planted into a blend of loam soil and sand and treated preemergence with test chemicals formulated in a non-phytotoxic solvent mixture which included a surfactant.
At the same time, plants selected from these crop and weed species and also chickweed (common chickweed, Stellaria media), canarygrass (littleseed canarygrass, Phalaris minor), and deadnettle (henbit deadnettle, Lamium amplexicaule), were planted in pots containing Redi-Earth® planting medium (Scotts Company, 14111 Scottslawn Road, Marysville, Ohio 43041) comprising spaghnum peat moss, vermiculite, wetting agent and starter nutrients and treated with postemergence applications of test chemicals formulated in the same manner. Plants ranged in height from 2 to 18 cm (1- to 4-leaf stage) for postemergence treatments. Treated plants and controls were maintained in a greenhouse for 13 to 15 days, after which time all species were compared to controls and visually evaluated. Plant response ratings, summarized in Table C, are based on a scale of 0 to 100 where 0 is no effect and 100 is complete control. A dash (-) response means no test result.

velvetleaf = test: Test C postemergence; type: in vivo, Abutilon theophrasti; details: for Plant response rating (scale of 0 to 100 where 0 is no effect and 100 is complete control), Velvetleaf: 31 g ai/ha, visually evaluated after 13 to 15 days; for Velvetleaf plant response rating / Plant response rating, Velvetleaf: postemergence; for Velvetleaf plant response rating: 62 g ai/ha, scale 0 to 100
Summary of the method: as §2

[5] = Preemergence, 500 g ai/ha, 0 no effect, 100 complete control
[6] = preemergence, 125 g ai/ha, visual injury, approx. 10 days
[7] = 125 g ai/ha, visual injury, 0 to 100 scale, approx. 10 days
[8] = 500 g ai/ha, visual injury after approx. 10 days, 0 to 100 scale (0 no effect, 100 complete control)
[9] = Postemergence, 500 g ai/ha, visual rating after approx. 10 days, 0 to 100 scale (0 no effect, 100 complete control)
[10] = postemergence, 125 g ai/ha, about 10 days, visual rating on 0 to 100 scale (0 no effect, 100 complete control)
[11] = preemergence, 31 g ai/ha, scale 0 to 100 (0 no effect, 100 complete control), 13 to 15 days
[12] = preemergence, 62 g ai/ha, 13 to 15 days, scale 0 to 100, 0 = no effect, 100 = complete control
[13] = preemergence, 125 g ai/ha, scale 0 to 100, 0 is no effect, 100 is complete control
[14] = 250 g ai/ha, scale 0 to 100 (0 no effect, 100 complete control)
[15] = 125 g ai/ha, scale 0 to 100, 0 no effect, 100 complete control
[16] = Preemergence, 16 g ai/ha, scale 0 to 100

| SMILES | Foxtail, Giant plant response rating (foxtail, giant [1]; [5]) | Foxtail, Giant plant response rating (foxtail, giant [1]; [6]) | Pigweed plant response rating (pigweed; [5]) | Pigweed plant response rating (pigweed; [6]) | Wheat plant response rating (wheat [2]; [7]) | Wheat plant response rating (wheat [2]; [8]) | Wheat plant response rating (wheat [3]; [9]) | Wheat plant response rating (wheat [3]; [10]) | Plant response rating, Rice (rice) | Foxtail, Giant plant response rating (foxtail, giant [4]; [11]) | Plant response rating, Foxtail, Giant (foxtail, giant [4]; [12]) | Foxtail, Giant plant response rating (foxtail, giant [4]; [13]) | Johnsongrass plant response rating (johnsongrass; [11]) | Johnsongrass plant response rating (johnsongrass; [13]) | Plant response rating (scale of 0 to 100 where 0 is no effect and 100 is complete control), Blackgrass (blackgrass; Postemergence) | Blackgrass plant response rating (blackgrass) | Plant response rating, Blackgrass (blackgrass; [15]) | Plant response rating (scale of 0 to 100 where 0 is no effect and 100 is complete control), Crabgrass, Large (crabgrass, large; Postemergence) | Crabgrass, Large plant response rating (crabgrass, large) | Plant response rating, Crabgrass, Large (crabgrass, large; [15]) | further results |
| --- | --- | --- | --- | --- | --- | --- | --- | --- | --- | --- | --- | --- | --- | --- | --- | --- | --- | --- | --- | --- | --- |
| CCc1cc(C(=O)NC2CC2)nn1Cc1ccnc(C(F)(F)F)c1 [Compound 76] | 100 | 80 | 100 | 100 | 30 | 90 | 90 | 80 | 20 | 100 | 100 | 100 | 80 | 100 | 5 | 5 | 5 | 5 | 10 | 70 | Plant response rating (scale of 0 to 100), Foxtail, Giant (foxtail, giant [4]; Preemergence, 250 g ai/ha): 100; Plant response rating (scale of 0 to 100), Johnsongrass (johnsongrass; Preemergence, 250 g ai/ha): 100; Plant response rating, Johnsongrass (johnsongrass; [12]): 100; Plant response rating, Blackgrass (blackgrass; [14]): 10; Plant response rating, Crabgrass, Large (crabgrass, large; [14]): 70; Plant response rating (scale of 0 to 100 where 0 is no effect and 100 is complete control), Nutsedge, Yellow (nutsedge, yellow; Postemergence): 5; Nutsedge, Yellow plant response rating (nutsedge, yellow): 5; Plant response rating, Nutsedge, Yellow (nutsedge, yellow; [14]): 5; Plant response rating, Nutsedge, Yellow (nutsedge, yellow; [15]): 5; Plant response rating (scale of 0 to 100 where 0 is no effect and 100 is complete control), Barnyardgrass (barnyardgrass; Postemergence): 5; Barnyardgrass plant response rating (barnyardgrass): 5; Plant response rating, Barnyardgrass (barnyardgrass; [14]): 60; Plant response rating, Barnyardgrass (barnyardgrass; [15]): 15; Plant response rating (scale of 0 to 100 where 0 is no effect and 100 is complete control), Velvetleaf (velvetleaf; Postemergence): 15; Velvetleaf plant response rating (velvetleaf): 40; Plant response rating, Velvetleaf (velvetleaf; [14]): 80; Plant response rating, Velvetleaf (velvetleaf; [15]): 60 |
| CCONC(=O)c1cc(CC)n(Cc2ccnc(C(F)(F)F)c2)n1 [Compound 77] | 100 | 100 | 100 | 100 | 20 | 40 | 50 | 40 | 20 | 80 | 85 | 100 | 45 | 70 | 5 | 5 | 5 | 10 | 10 | 20 | Plant response rating, Foxtail, Giant (foxtail, giant [4]; [16]): 20; Plant response rating, Johnsongrass (johnsongrass; [16]): 10; Plant response rating (scale of 0 to 100), Blackgrass (blackgrass; Postemergence, 16 g ai/ha): 0; Plant response rating (scale of 0 to 100), Crabgrass, Large (crabgrass, large; Postemergence, 16 g ai/ha): 5; Plant response rating (scale of 0 to 100), Nutsedge, Yellow (nutsedge, yellow; Postemergence, 16 g ai/ha): 0; Plant response rating (scale of 0 to 100 where 0 is no effect and 100 is complete control), Nutsedge, Yellow (nutsedge, yellow; Postemergence): 5; Nutsedge, Yellow plant response rating (nutsedge, yellow): 5; Plant response rating, Nutsedge, Yellow (nutsedge, yellow; [15]): 5; Plant response rating (scale of 0 to 100), Barnyardgrass (barnyardgrass; Postemergence, 16 g ai/ha): 0; Plant response rating (scale of 0 to 100 where 0 is no effect and 100 is complete control), Barnyardgrass (barnyardgrass; Postemergence): 0; Barnyardgrass plant response rating (barnyardgrass): 5; Plant response rating, Barnyardgrass (barnyardgrass; [15]): 20; Plant response rating (scale of 0 to 100), Velvetleaf (velvetleaf; Postemergence, 16 g ai/ha): 10; Plant response rating (scale of 0 to 100 where 0 is no effect and 100 is complete control), Velvetleaf (velvetleaf; Postemergence): 15; Velvetleaf plant response rating (velvetleaf): 15; Plant response rating, Velvetleaf (velvetleaf; [15]): 20 |
